Assays:
[1] = Toxicity in dog administered as bid for 28 days; assay type: organism-based, Canis lupus familiaris; conditions: in vivo
Mus musculus [2] = assay: Reduction of kynurenine in LPS-stimulated mouse plasma at 50 mg/kg, po by LC/MS/MS analysis; assay type: functional; design: scale not given: the % may be the effect or the level left
[3] = Toxicity in rat administered as bid for 28 days; assay type: organism-based; conditions: in vivo
Mus musculus [4] = assay: Reduction of kynurenine in LPS-stimulated mouse tissue at 50 mg/kg, po by LC/MS/MS analysis; assay type: functional; design: scale not given: the % may be the effect or the level left
[5] = molecular target: T1, Indoleamine 2,3-dioxygenase 1 (Homo sapiens, UniProt P14902); assay: Inhibition of recombinant human IDO1 assessed as conversion of […] incubated for 1 hr by fluorescence analysis
[6] = molecular target: T1, Indoleamine 2,3-dioxygenase 1; assay: Inhibition of IDO1 in IFNgamma-stimulated human HeLa cells incubated for 24 hrs; assay type: cell-based

T1 sequence (P14902 whole entry): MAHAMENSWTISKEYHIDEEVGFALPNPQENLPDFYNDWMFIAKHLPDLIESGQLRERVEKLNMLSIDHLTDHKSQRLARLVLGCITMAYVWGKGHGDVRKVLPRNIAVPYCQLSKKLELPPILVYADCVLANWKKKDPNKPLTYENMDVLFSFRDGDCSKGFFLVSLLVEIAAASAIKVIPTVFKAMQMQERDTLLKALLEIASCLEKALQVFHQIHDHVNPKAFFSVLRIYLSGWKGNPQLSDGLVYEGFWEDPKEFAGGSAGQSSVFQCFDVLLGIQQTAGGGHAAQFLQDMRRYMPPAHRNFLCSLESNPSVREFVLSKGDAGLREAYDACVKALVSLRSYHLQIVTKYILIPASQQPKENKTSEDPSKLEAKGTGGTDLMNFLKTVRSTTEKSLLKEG

| Structure (SMILES) | IC50 [5] [µM] | EC50 [6] [µM] | also measured |
| --- | --- | --- | --- |
| OC(CC1c2ccccc2-c2cncn21)C1CCCCC1 (mixture of isomers) | – | – | NOAEL at 672 h [1]: 80 mg/kg/day; Activity (Mus musculus [2]): 50%; NOAEL at 672 h [3]: 80 mg/kg/day; Activity (Mus musculus [4]): 50% |
| OC(Cn1c2ccccc2c2cccnc21)C1CCCCC1 (stereo not drawn) | > 10 | – | – |
| Cc1ncc2n1C(CC(O)C1CCCCC1)c1ccccc1-2 (stereo not drawn) | > 10 | > 10 | – |
| OC(CC1c2ccccc2-c2cnnn21)C1CCCCC1 (stereo not drawn) | > 10 | > 10 | – |
| OC(CC1Nc2ccccc2-c2cncn21)C1CCCCC1 (stereo not drawn) | 1.14 | > 10 | – |
| O=C(Cn1c2ccccc2c2cccnc21)C1CCCCC1 | > 10 | – | – |
| OC(Cn1c2ccccc2c2ccncc21)C1CCCCC1 (stereo not drawn) | > 10 | – | – |
